Data from patent US20100056443A1, “RADIOPHARMACEUTICAL TO BE USED IN DISTINCTION BETWEEN INFLAMMATIONS AND INFECTIONS IN ORTHOPAEDIC IMPLANTS” (priority 2006, published 2010).
No end group written: not given here.

Columns and labels:
Escherichia Coli = conditions: cited from earlier work
Gram-negative bacteria = conditions: in words; HBD-3: P. Aeruginosa, E. Coli; cited from earlier work
yeasts = conditions: in words; b28: yeast C. albicans; cited from earlier work
[1] = system: Gram-positive bacteria (Streptococcus pyogenes, S. Aureus); conditions: in words; including multi-resistant S. aureus and vancomycin-resistant Enterococcus Faecium; cited from earlier work
S. Aureus [2] = conditions: weak antimicrobial activity; cited from earlier work
S. cerevisiae = conditions: weak antimicrobial activity; cited from earlier work
S. pneumoniae = conditions: weak antimicrobial activity; cited from earlier work
B. cepacea = conditions: weak antimicrobial activity; cited from earlier work
S. Carnosous = conditions: strong antimicrobial activity; cited from earlier work
P. aeruginosa = conditions: strong antimicrobial activity; cited from earlier work
[3] = system: Gram-positive and Gram-negative bacteria; conditions: cited from earlier work
S. Aureus [4] = experiment: In vitro control of the biological activity of radiomarked HBD-3 (colony count on agar plates); assay type: cell-based; conditions: for Number of CFU existing in the plates: S. Aureus, 1.2 μg radiomarked HBD-3, 2 hours at 37° C.
Method: (§1) The control was performed as described by Harwing et al. Methods Enzymology 1994, 236: 160-172. In particular, the aliquote portion (20 μl) of a bacterial suspension of S. Aureus containing 5×10^6 CFU/ml was incubated (2 hours at 37° C.) with 200 μl of radiomarked HBD-3 (1.2 μg) and 75 μl of a suitable dilution of a culture broth (Tryptic Soy Broth). After incubation, two samples with dilution factors equalling to 1:1345 and 1:13450 were derived from the mixture. Twentyfive μl of these samples were collected and sown with sterile rod onto plates containing a culture medium (agar plate). After incubation for 24 hours at 37° C. the colonies were counted. A value higher than 800 CFU was considered not assessable due to the difficulty in counting.
(§2) An analogous experiment was carried out, under the same conditions, by using 200 μl of sterile buffer instead of the radiomarked HBD-3.

E. Coli = experiment: as above; assay type: cell-based; conditions: for Number of CFU existing in the plates: E. Coli
Method: as §1, §2
Both tests illustrated above, aimed at testing the sensibility of S. Aureus to the radiomarked HBD-3, were repeated, under identical conditions, with E. Coli with the same purposes. The results are shown in Table III and in FIGS. 1 and 2.

infection by S. Aureus = experiment: Infection detection by 99mTc-HBD-3 in experimental animal model (tissue counting: infection vs sterile inflammation vs normal muscle); assay type: in vivo, Wistar male rats
Method: Tissue samples were collected from the infection and inflammation seats after 1, 3 and 5 hours as from the injection of the tracer for each group of rats. Such samples were counted in a well-like counter. The countings expressed in terms of cpm/g of tissue were compared to the countings of properly collected normal muscle tissue samples. […] The results have been interpreted as indicating a specific bond of radiomarked recombinant HBD-3 with the S. Aureus.
The rats Nr. 3, 6 and 9 had received a weight dose in marked product higher than the rats Nr. 2, 5 and 8 which, in turn, had received a dose of the same product higher than the rats 1, 4 and 7. As it can be seen, a greater ratio between countings measured onto the abscess seat and those recorded onto the inflammation seat and onto the normal muscle corresponds to a higher dose of radiomarked peptide. Such run lets assuming a dose-depending ratio of dependency of the radiopharmaceutical captation.

[5] = dilution 1:1345, >800 CFU not assessable

## HBD-1: human β-defensin, constitutive expression (DHYNCVSSGGQCLYSACPIFTKIQGTCYRGKAKCCK; UniProt P60022 33-68, looked up)
Escherichia Coli; at micro-molecular concentrations
  Activity: Bactericide*

## HBD-3: human beta-defensin-3, antimicrobial peptide weighing 5,15 kDa (GIINTLQKYYCRVRGGRCAVLSCLPKEEQIGKCSTRGRKCCRRKK; Beta-defensin 103; UniProt P81534 23-67, looked up)
Gram-negative bacteria
  Activity: Bactericide
yeasts
  Activity: Bactericide
[1]
  Activity: Bactericide

## HBD-4: human β-defensin, constitutive expression (EFELDRICGYGTARCRKKCRSQEYRIGRCPNTYACCLRKWDESLLNRTKP; UniProt Q8WTQ1 23-72, looked up)
Escherichia Coli; weak antimicrobial activity
  MIC: (MIC > 100 μg/ml);
S. Aureus [2]
  MIC: (MIC > 100 μg/ml);
S. cerevisiae
  MIC: (MIC > 100 μg/ml);
S. pneumoniae
  MIC: (MIC > 100 μg/ml);
B. cepacea
  MIC: (MIC > 100 μg/ml);
S. Carnosous
  MIC: (MIC = 4.5 μg/ml)
P. aeruginosa
  MIC: (MIC = 4.1 μg/ml)

## HNP-1: human α-defensin inside neutrophils
[3]; Gram-positive and Gram-negative bacteria
  Bactericide concentrations: greater than 100 μl;

## HNP-2: truncated human α-defensin (CYCRIPACIAGERRYGTCIYQGRLWAFCC; Neutrophil defensin 2; UniProt P59665 66-94, looked up)
[3]; in words, relative to HNP-1
  Activity: Like HPN-1

## radiomarked HBD-3: recombinant human β-defensin-3 marked with 99mTc+ exa-coordinated with 3 molecules of CO and H2O (GIINTLQKYYCRVRGGRCAVLSCLPKEEQIGKCSTRGRKCCRRKK; cysteine pairing not given here; also: 99mTc(CO)3 label, site not given here; UniProt P81534 23-67, looked up)
S. Aureus [4]; [5]
  Number of CFU existing in the plates: 348 CFU
S. Aureus [4]; dilution 1:13450
  Number of CFU existing in the plates: 17 CFU
S. Aureus [4]; towards S. Aureus (greater than towards E. Coli)
  biological activity of HBD-3 after marking with 99mTc: maintained biological activity
E. Coli; [5]
  Number of CFU existing in the plates: >800 CFU
E. Coli; dilution 1:13450
  Number of CFU existing in the plates: 310 CFU
E. Coli; towards E. Coli (lower than towards S. Aureus)
  biological activity of HBD-3 after marking with 99mTc: maintained biological activity
Infection by S. Aureus; rats, 5 hours as from the tracer's injection, cpm/g of tissue
  tracer's captation in the infection seats relative to the inflammation seats: 3 times
Infection by S. Aureus; rats, in the whole experiment (1, 3 and 5 hours)
  fixation of tracer, inflammatory lesions versus normal muscles: no significant fixation differences
Infection by S. Aureus; rats, one hour as from the injection
  tracer's captation, infection seats versus inflammation seats: no significant differences
Infection by S. Aureus; single rats 1-9, doses from 1,6 to 5,2 μg
  dependency of the radiopharmaceutical captation ratio (abscess vs inflammation seat and normal muscle) on dose: dose-depending
